In patent US11214803B2, “Modulators of YAP1 expression” (Ionis Pharmaceuticals, Inc., priority 2019, dated 2022):
Marks after values point to notes of the source that are not given here. Strand notation (5' to 3'): a small letter for the sugar, then the base; units joined by * are phosphorothioate-linked, units joined directly phosphodiester-linked; [ ] holds rarer units or linkages, { } end groups; capitals alone tell only the bases. k = constrained ethyl (cEt); [5mC] = 5-methylcytosine; d = 2'-deoxy (DNA)

Each substance was assayed on Yap1 mRNA (assay: Antisense inhibition of human Yap1 in A-431 cells by cEt gapmers, single dose (Example 2, RTS4814)). Conditions: A-431 cells, 5,000 cells per well, free uptake, 2,000 nM modified oligonucleotide, approx. 48 hours, RTS4814, normalized to RIBOGREEN; Table 4; asterisk (*) = targets amplicon region of primer probe set.
Type: cell-based
How it was run: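 A-431 cells (5,000/well) received 2,000 nM oligonucleotide by free uptake for about 48 h. Yap1 mRNA was then quantified by RT-qPCR with primer probe set RTS4814, normalized to RIBOGREEN total RNA, and reported as % of untreated control; asterisked values mark oligos inside the amplicon.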
In the case of “716514 (antisense kG*k[5mC]*kT*dG*dA*dT*dA*dT*dA*dT*dA*dA*dG*kA*kT*kA) [Compound 716514]”, the “YAP1 (% UTC)” value was 68 % UTC.
In the case of “716475 (k[5mC]*kT*kT*d[5mC]*d[5mC]*dA*dA*dA*dA*d[5mC]*dT*dA*dA*kG*kG*k[5mC]; antisense) [Compound 716475]”, the “YAP1 (% UTC)” value was 63 % UTC.
“716544 (antisense kT*kA*k[5mC]*dT*dT*dA*dA*d[5mC]*dA*d[5mC]*dA*dG*d[5mC]*kA*kA*k[5mC]) [Compound 716544]” was tested, and the “YAP1 (% UTC)” value was 71 % UTC.
“716520 (antisense kA*kG*kT*d[5mC]*dT*dT*dT*dA*dT*dT*dA*dA*dA*kG*kA*kG) [Compound 716520]” was tested, and the “YAP1 (% UTC)” value was 96 % UTC.

Same assay, conditions: Table 5; A-431 cells, 5,000 cells per well, free uptake, 2,000 nM modified oligonucleotide, approx. 48 hours; RTS4814; normalized to RIBOGREEN; Yap1 mRNA relative to untreated control cells
In the case of “716473 (k[5mC]*kT*kA*dT*dA*dA*dA*dG*d[5mC]*dT*dT*dA*dT*kT*kT*k[5mC]; antisense) [Compound 716473]”, the “YAP1 (% UTC)” value was 104 % UTC.

Same assay, conditions: Table 6; A-431 cells, 5,000 cells per well, free uptake, 2,000 nM modified oligonucleotide, approx. 48 hours; RTS4814; normalized to RIBOGREEN; Yap1 mRNA relative to untreated control cells
With “716528 (antisense kT*kT*kA*dG*dG*dT*d[5mC]*dT*d[5mC]*d[5mC]*dT*dT*d[5mC]*kA*kG*kG) [Compound 716528]” the “YAP1 (% UTC)” value was 70 % UTC.
“716531 (antisense kG*kG*kA*d[5mC]*dA*dT*dA*dA*dA*dA*d[5mC]*dA*dA*kG*kA*kG) [Compound 716531]” was tested, and the “YAP1 (% UTC)” value was 65 % UTC.
With “716435 (kA*k[5mC]*kA*dA*d[5mC]*dT*dG*dT*dT*dG*dA*dA*d[5mC]*kA*kA*kA; antisense) [Compound 716435]” the “YAP1 (% UTC)” value was 45 % UTC.

Same assay, conditions: Table 18; A-431 cells, 5,000 cells per well, free uptake, 2,000 nM modified oligonucleotide, approx. 48 hours; RTS4814; normalized to RIBOGREEN; Yap1 mRNA as percent of untreated control
For “1074724 (antisense kG*kG*kG*dT*dA*dA*dA*dG*dG*dA*dA*dG*dA*kT*k[5mC]*kT) [Compound 1074724]”, the “YAP1 (% UTC)” value was 22 % UTC.
With “1075524 (kT*kA*kA*dT*dT*dA*dA*dG*dG*dG*d[5mC]*d[5mC]*d[5mC]*kA*k[5mC]*kA; antisense) [Compound 1075524]” the “YAP1 (% UTC)” value was 71 % UTC.
For “1074692 (antisense k[5mC]*k[5mC]*k[5mC]*d[5mC]*d[5mC]*d[5mC]*d[5mC]*dA*dA*dA*d[5mC]*dT*dT*kT*k[5mC]*k[5mC]) [Compound 1074692]”, the “YAP1 (% UTC)” value was 101 % UTC.

Same assay, conditions: Table 19; A-431 cells, 5,000 cells per well, free uptake, 2,000 nM modified oligonucleotide, approx. 48 hours; RTS4814; normalized to RIBOGREEN; Yap1 mRNA as percent of untreated control
With “1074693 (antisense k[5mC]*k[5mC]*k[5mC]*d[5mC]*d[5mC]*d[5mC]*d[5mC]*d[5mC]*dA*dA*dA*d[5mC]*dT*kT*kT*k[5mC]) [Compound 1074693]” the “YAP1 (% UTC)” value was 92 % UTC.
“1075589 (kA*kA*kT*dT*dA*dG*d[5mC]*dA*dG*dG*dG*d[5mC]*dA*kG*kA*k[5mC]; antisense) [Compound 1075589]” was tested, and the “YAP1 (% UTC)” value was 84 % UTC.

Same assay, conditions: Table 20; Yap1 mRNA, percent of untreated control; 3-10-3 cEt gapmers targeting SEQ ID NO.: 1 and 2
With “1074502 (kA*kA*k[5mC]*dT*dA*d[5mC]*dA*dA*dT*dA*dA*d[5mC]*d[5mC]*kA*kT*k[5mC]; antisense) [Compound 1074502]” the “YAP1 (% UTC)” value was 31 % UTC.
With “1075846 (kG*kA*kT*dT*dA*dA*dG*dA*dG*d[5mC]*d[5mC]*dT*dA*kT*k[5mC]*kT; antisense) [Compound 1075846]” the “YAP1 (% UTC)” value was 96 % UTC.
In the case of “1076326 (kG*k[5mC]*kT*dA*dA*dT*dA*dA*dT*dG*dG*dA*dA*kG*kA*kG; antisense) [Compound 1076326]”, the “YAP1 (% UTC)” value was 4 % UTC.
“1075462 (antisense kG*kT*kT*dT*dA*dT*dA*dG*dA*d[5mC]*dA*dA*dG*kT*k[5mC]*kA) [Compound 1075462]” was tested, and the “YAP1 (% UTC)” value was 15 % UTC.
For “1075814 (kT*kA*kT*dA*dA*dA*dG*d[5mC]*dA*dG*dG*dG*d[5mC]*kA*kT*kT; antisense) [Compound 1075814]”, the “YAP1 (% UTC)” value was 47 % UTC.
“1074918 (antisense kT*k[5mC]*kA*dA*dG*dT*dT*dA*d[5mC]*dA*dT*d[5mC]*d[5mC]*k[5mC]*kG*kA) [Compound 1074918]” was tested, and the “YAP1 (% UTC)” value was 60 % UTC.

Same assay, conditions: Table 21; Yap1 mRNA, percent of untreated control; 3-10-3 cEt gapmers targeting SEQ ID NO.: 1 and 2
For “1076103 (kG*k[5mC]*kT*dT*dA*dA*d[5mC]*dA*dA*dA*dT*d[5mC]*dA*kG*k[5mC]*k[5mC]; antisense) [Compound 1076103]”, the “YAP1 (% UTC)” value was 79 % UTC.
“1075495 (antisense k[5mC]*kT*kT*dA*dA*dT*dT*dG*dG*dT*dA*dA*d[5mC]*kT*kG*kA) [Compound 1075495]” was tested, and the “YAP1 (% UTC)” value was 19 % UTC.
In the case of “1075367 (k[5mC]*kA*kT*dT*dA*d[5mC]*dT*dT*dA*dG*dG*dG*d[5mC]*kT*kT*kA; antisense) [Compound 1075367]”, the “YAP1 (% UTC)” value was 12 % UTC.
In the case of “1075335 (k[5mC]*kT*kT*dA*dA*dT*dA*dA*dT*d[5mC]*dT*dA*d[5mC]*k[5mC]*kA*kG; antisense) [Compound 1075335]”, the “YAP1 (% UTC)” value was 30 % UTC.
With “1074823 (kG*kA*kG*d[5mC]*dA*d[5mC]*dT*d[5mC]*dA*dT*dT*dT*d[5mC]*kT*k[5mC]*kA; antisense) [Compound 1074823]” the “YAP1 (% UTC)” value was 77 % UTC.

Same assay, conditions: Table 22; Yap1 mRNA as percent of untreated control; 3-10-3 cEt gapmers; single dose
For “1076488 (antisense kG*k[5mC]*k[5mC]*dA*dA*dT*dA*dA*dG*dA*dT*dA*dA*kG*kA*kA) [Compound 1076488]”, the “YAP1 (% UTC)” value was 19 % UTC.
In the case of “1074888 (antisense kG*kT*kT*dT*dA*dG*d[5mC]*d[5mC]*dT*dG*dA*dA*dG*k[5mC]*kA*kA) [Compound 1074888]”, the “YAP1 (% UTC)” value was 58 % UTC.

Same assay, conditions: Table 23; Yap1 mRNA as percent of untreated control; 3-10-3 cEt gapmers; single dose
In the case of “1076297 (kT*kT*kA*dT*dA*dA*dA*dG*dA*d[5mC]*d[5mC]*d[5mC]*dA*kA*kT*kG; antisense) [Compound 1076297]”, the “YAP1 (% UTC)” value was 52 % UTC.
For “1074441 (k[5mC]*kA*kA*dA*d[5mC]*dT*dA*dA*dA*dT*dG*d[5mC]*dT*kG*kT*kG; antisense) [Compound 1074441]”, the “YAP1 (% UTC)” value was 5* % UTC.

Same assay, conditions: Table 24; Yap1 mRNA as percent of untreated control; 3-10-3 cEt gapmers targeting SEQ ID NO.: 1, and 2
“1075146 (antisense kG*kT*kA*dT*dT*dA*dA*dG*dG*dG*dA*dT*dT*kT*kT*k[5mC]) [Compound 1075146]” was tested, and the “YAP1 (% UTC)” value was 8 % UTC.
“1076266 (kA*kT*kT*dA*dT*dT*dA*d[5mC]*d[5mC]*d[5mC]*dA*dA*dT*kA*kA*k[5mC]; antisense) [Compound 1076266]” was tested, and the “YAP1 (% UTC)” value was 72 % UTC.
With “1075530 (kG*kA*kA*dA*dT*d[5mC]*dG*dA*dA*dG*dG*dG*d[5mC]*kA*kA*kA; antisense) [Compound 1075530]” the “YAP1 (% UTC)” value was 30 % UTC.
“1076458 (antisense k[5mC]*kT*kT*dA*dA*dT*dT*dA*dG*d[5mC]*d[5mC]*dT*d[5mC]*kA*kG*kT) [Compound 1076458]” was tested, and the “YAP1 (% UTC)” value was 6 % UTC.
With “1074986 (antisense k[5mC]*kT*kA*d[5mC]*dT*dG*dT*dA*dA*dT*d[5mC]*dA*d[5mC]*k[5mC]*kT*kT) [Compound 1074986]” the “YAP1 (% UTC)” value was 78 % UTC.
For “1075946 (kG*k[5mC]*kT*dG*dA*dA*dT*dA*dA*dG*dT*dA*dA*k[5mC]*kT*kT; antisense) [Compound 1075946]”, the “YAP1 (% UTC)” value was 20 % UTC.

Same assay, conditions: Table 25; Yap1 mRNA as percent of untreated control; 3-10-3 cEt gapmers targeting SEQ ID NO.: 1, and 2
“1074955 (antisense k[5mC]*k[5mC]*k[5mC]*dG*dG*dG*dT*dT*dT*dT*dT*dG*dT*k[5mC]*kA*kT) [Compound 1074955]” was tested, and the “YAP1 (% UTC)” value was 93 % UTC.
“1075371 (k[5mC]*kT*kG*d[5mC]*dA*dA*dA*dA*dG*dT*dT*d[5mC]*dT*kT*kA*k[5mC]; antisense) [Compound 1075371]” was tested, and the “YAP1 (% UTC)” value was 90 % UTC.

Same assay, conditions: Table 32; Yap1 mRNA, percent of untreated control; 3-10-3 cEt gapmers targeting SEQ ID NO.: 1, and 2
“1075218 (k[5mC]*kT*kT*dA*dA*d[5mC]*dA*d[5mC]*dT*dG*dG*dT*dA*kA*kG*kA; antisense) [compound 1075218]” was tested, and the “YAP1 (% UTC)” value was 97 % UTC.
In the case of “1074866 (kA*kA*k[5mC]*dA*dT*dA*dT*dG*dA*dG*d[5mC]*dA*dT*kG*k[5mC]*kT; antisense) [compound 1074866]”, the “YAP1 (% UTC)” value was 30 % UTC.

Same assay, conditions: Table 33; Yap1 mRNA, percent of untreated control; 3-10-3 cEt gapmers targeting SEQ ID NO.: 1, and 2
“1074291 (antisense k[5mC]*kA*k[5mC]*dT*d[5mC]*dT*dG*dA*d[5mC]*dT*dG*dA*dT*kT*k[5mC]*kT) [compound 1074291]” was tested, and the “YAP1 (% UTC)” value was 11 % UTC.
In the case of “1074611 (DNA kT*kA*kG*d[5mC]*dT*dT*dA*dT*dA*dT*dT*dG*dA*kA*kG*kA) [compound 1074611]”, the “YAP1 (% UTC)” value was 19 % UTC.

Same assay, conditions: Yap1 mRNA as percent of untreated control; A-431 cells; 3-10-3 cEt gapmers targeting SEQ ID NO.: 1, and 2; Table 30
In the case of “1075120 (kA*kA*kT*dT*dA*dG*d[5mC]*d[5mC]*dT*dA*d[5mC]*d[5mC]*dA*k[5mC]*k[5mC]*kT; antisense) [compound 1075120]”, the “YAP1 (% UTC)” value was 42 % UTC.
In the case of “1075472 (kG*kA*kT*dT*dA*dT*dA*dG*dT*dT*dA*dA*dA*k[5mC]*kA*kG; antisense) [compound 1075472]”, the “YAP1 (% UTC)” value was 92 % UTC.
“1076016 (kT*kA*kA*dT*dA*dG*dG*dA*dT*dG*dG*dA*dT*kT*k[5mC]*kT; antisense) [compound 1076016]” was tested, and the “YAP1 (% UTC)” value was 8 % UTC.
